Data on 4 compounds can be found in PubChem BioAssay AID1963867 (Molecular Pharmacology Branch, DTP, NCI, 2024).

Broadly, the viability, T/C is the ratio of treated to control.
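Note: spheroids exposed to agents for seven days before reading; 100% = DMSO vehicle wells so lower means fewer viable cells.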

The first assay concerns KRAS-mutant PDC tumor spheroid with HUVEC/MSC, viability. The assay can be described thus: Anticancer human tumor 327498-153-R-J2-PDC patient-derived uterine carcinosarcoma cell line growth inhibition [KRAS2]. The note with it: second compound 1 µM; first compound 0.01 µM; hits give low values. The gist of the method:
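KRAS-mutant tumor cells were grown as spheroids with HUVEC endothelial cells and human MSCs as stroma. Targeted agents were tested alone and with KRAS pathway inhibitors. Doses started at or near clinical Cmax, or 10 microM, descending half-log.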
With `CCN1CCN(Cc2ccc(Nc3ncc(F)c(-c4cc(F)c5nc(C)n(C(C)C)c5c4)n3)nc2)CC1` + C=CC(=O)N1CCN(c2nc(=O)n(-c3c(C)ccnc3C(C)C)c3nc(-c4c(O)cccc4F)c(F)cc23)C(C)C1, the viability, T/C is 42%.

The assay is the same for the next values; noted with them: second compound 1 µM; first compound 0.0316 µM; hits give low values.
Take `CC(C)NCC(C(=O)N1CCN(c2ncnc3c2C(C)CC3O)CC1)c1ccc(Cl)cc1` (stereo not given) + C=CC(=O)N1CCN(c2nc(=O)n(-c3c(C)ccnc3C(C)C)c3nc(-c4c(O)cccc4F)c(F)cc23)C(C)C1: the viability, T/C was 48.2%.
In the case of `CC1COCCN1c1cc(-c2ccnn2C)c2ccnc(-c3ccn[nH]3)c2n1` (stereo not given) + C=CC(=O)N1CCN(c2nc(=O)n(-c3c(C)ccnc3C(C)C)c3nc(-c4c(O)cccc4F)c(F)cc23)C(C)C1, the viability, T/C was 23.3%.
On the same count and under the same terms, to `CCN1CCN(Cc2ccc(Nc3ncc(F)c(-c4cc(F)c5nc(C)n(C(C)C)c5c4)n3)nc2)CC1` + C=CC(=O)N1CCN(c2nc(=O)n(-c3c(C)ccnc3C(C)C)c3nc(-c4c(O)cccc4F)c(F)cc23)C(C)C1 belongs 30.2%.
Regarding `CCNC(=O)CC1N=C(c2ccc(Cl)cc2)c2cc(OC)ccc2-n2c(C)nnc21` (stereo not given) + C=CC(=O)N1CCN(c2nc(=O)n(-c3c(C)ccnc3C(C)C)c3nc(-c4c(O)cccc4F)c(F)cc23)C(C)C1, the viability, T/C is 60.4%.

Staying with this assay, now noted: second compound 1 µM; first compound 0.1 µM; hits give low values.
For the compound `CC(C)NCC(C(=O)N1CCN(c2ncnc3c2C(C)CC3O)CC1)c1ccc(Cl)cc1` (stereo not given) + C=CC(=O)N1CCN(c2nc(=O)n(-c3c(C)ccnc3C(C)C)c3nc(-c4c(O)cccc4F)c(F)cc23)C(C)C1, the viability, T/C is 29.6%.
`CC1COCCN1c1cc(-c2ccnn2C)c2ccnc(-c3ccn[nH]3)c2n1` (stereo not given) + C=CC(=O)N1CCN(c2nc(=O)n(-c3c(C)ccnc3C(C)C)c3nc(-c4c(O)cccc4F)c(F)cc23)C(C)C1: the viability, T/C was 10.6%.
With `CCN1CCN(Cc2ccc(Nc3ncc(F)c(-c4cc(F)c5nc(C)n(C(C)C)c5c4)n3)nc2)CC1` + C=CC(=O)N1CCN(c2nc(=O)n(-c3c(C)ccnc3C(C)C)c3nc(-c4c(O)cccc4F)c(F)cc23)C(C)C1, the viability, T/C was 33.5%.
Consider `CCNC(=O)CC1N=C(c2ccc(Cl)cc2)c2cc(OC)ccc2-n2c(C)nnc21` (stereo not given) + C=CC(=O)N1CCN(c2nc(=O)n(-c3c(C)ccnc3C(C)C)c3nc(-c4c(O)cccc4F)c(F)cc23)C(C)C1, for which the viability, T/C was 51.2%.

Still in this assay, the particulars now being: second compound 1 µM; first compound 0.316 µM; hits give low values.
Consider `CC(C)NCC(C(=O)N1CCN(c2ncnc3c2C(C)CC3O)CC1)c1ccc(Cl)cc1` (stereo not given) + C=CC(=O)N1CCN(c2nc(=O)n(-c3c(C)ccnc3C(C)C)c3nc(-c4c(O)cccc4F)c(F)cc23)C(C)C1, for which the viability, T/C is 19.9%.
Take `CC1COCCN1c1cc(-c2ccnn2C)c2ccnc(-c3ccn[nH]3)c2n1` (stereo not given) + C=CC(=O)N1CCN(c2nc(=O)n(-c3c(C)ccnc3C(C)C)c3nc(-c4c(O)cccc4F)c(F)cc23)C(C)C1: the viability, T/C is 7.15%.
As for `CCN1CCN(Cc2ccc(Nc3ncc(F)c(-c4cc(F)c5nc(C)n(C(C)C)c5c4)n3)nc2)CC1` + C=CC(=O)N1CCN(c2nc(=O)n(-c3c(C)ccnc3C(C)C)c3nc(-c4c(O)cccc4F)c(F)cc23)C(C)C1, the viability, T/C was 39%.
On the same count and under the same terms, with `CCNC(=O)CC1N=C(c2ccc(Cl)cc2)c2cc(OC)ccc2-n2c(C)nnc21` (stereo not given) + C=CC(=O)N1CCN(c2nc(=O)n(-c3c(C)ccnc3C(C)C)c3nc(-c4c(O)cccc4F)c(F)cc23)C(C)C1 the figure was 51.1%.

The same assay, now with this note: second compound 1 µM; first compound 1 µM; hits give low values.
Consider `CC(C)NCC(C(=O)N1CCN(c2ncnc3c2C(C)CC3O)CC1)c1ccc(Cl)cc1` (stereo not given) + C=CC(=O)N1CCN(c2nc(=O)n(-c3c(C)ccnc3C(C)C)c3nc(-c4c(O)cccc4F)c(F)cc23)C(C)C1, for which the viability, T/C is 13.5%.
The same measure, in the same setting: with `CC1COCCN1c1cc(-c2ccnn2C)c2ccnc(-c3ccn[nH]3)c2n1` (stereo not given) + C=CC(=O)N1CCN(c2nc(=O)n(-c3c(C)ccnc3C(C)C)c3nc(-c4c(O)cccc4F)c(F)cc23)C(C)C1 the figure was 6.94%; with `CCN1CCN(Cc2ccc(Nc3ncc(F)c(-c4cc(F)c5nc(C)n(C(C)C)c5c4)n3)nc2)CC1` + C=CC(=O)N1CCN(c2nc(=O)n(-c3c(C)ccnc3C(C)C)c3nc(-c4c(O)cccc4F)c(F)cc23)C(C)C1, 38.3%.
Turning to `CCNC(=O)CC1N=C(c2ccc(Cl)cc2)c2cc(OC)ccc2-n2c(C)nnc21` (stereo not given) + C=CC(=O)N1CCN(c2nc(=O)n(-c3c(C)ccnc3C(C)C)c3nc(-c4c(O)cccc4F)c(F)cc23)C(C)C1, the viability, T/C is 33.7%.

Still in this assay, the particulars now being: second compound 1 µM; first compound 3.16 µM; hits give low values.
Take `CC(C)NCC(C(=O)N1CCN(c2ncnc3c2C(C)CC3O)CC1)c1ccc(Cl)cc1` (stereo not given) + C=CC(=O)N1CCN(c2nc(=O)n(-c3c(C)ccnc3C(C)C)c3nc(-c4c(O)cccc4F)c(F)cc23)C(C)C1: the viability, T/C was 10.4%.
`CC1COCCN1c1cc(-c2ccnn2C)c2ccnc(-c3ccn[nH]3)c2n1` (stereo not given) + C=CC(=O)N1CCN(c2nc(=O)n(-c3c(C)ccnc3C(C)C)c3nc(-c4c(O)cccc4F)c(F)cc23)C(C)C1: the viability, T/C is 6.78%.
On to `CCNC(=O)CC1N=C(c2ccc(Cl)cc2)c2cc(OC)ccc2-n2c(C)nnc21` (stereo not given) + C=CC(=O)N1CCN(c2nc(=O)n(-c3c(C)ccnc3C(C)C)c3nc(-c4c(O)cccc4F)c(F)cc23)C(C)C1, for which the viability, T/C is 26.2%.

Staying with this assay, now noted: second compound 1 µM; first compound 10 µM; hits give low values.
As to `CC(C)NCC(C(=O)N1CCN(c2ncnc3c2C(C)CC3O)CC1)c1ccc(Cl)cc1` (stereo not given) + C=CC(=O)N1CCN(c2nc(=O)n(-c3c(C)ccnc3C(C)C)c3nc(-c4c(O)cccc4F)c(F)cc23)C(C)C1, the viability, T/C was 7.77%.
`CCNC(=O)CC1N=C(c2ccc(Cl)cc2)c2cc(OC)ccc2-n2c(C)nnc21` (stereo not given) + C=CC(=O)N1CCN(c2nc(=O)n(-c3c(C)ccnc3C(C)C)c3nc(-c4c(O)cccc4F)c(F)cc23)C(C)C1: the viability, T/C is 22.7%.

Staying with this assay, now noted: second compound 3.16 µM; first compound 0.00316 µM; hits give low values.
Consider `CCN1CCN(Cc2ccc(Nc3ncc(F)c(-c4cc(F)c5nc(C)n(C(C)C)c5c4)n3)nc2)CC1` + C=CC(=O)N1CCN(c2nc(=O)n(-c3c(C)ccnc3C(C)C)c3nc(-c4c(O)cccc4F)c(F)cc23)C(C)C1, for which the viability, T/C is 49.2%.

Staying with this assay, now noted: second compound 3.16 µM; first compound 0.01 µM; hits give low values.
Consider `CC1COCCN1c1cc(-c2ccnn2C)c2ccnc(-c3ccn[nH]3)c2n1` (stereo not given) + C=CC(=O)N1CCN(c2nc(=O)n(-c3c(C)ccnc3C(C)C)c3nc(-c4c(O)cccc4F)c(F)cc23)C(C)C1, for which the viability, T/C was 42.5%.
On to `CCN1CCN(Cc2ccc(Nc3ncc(F)c(-c4cc(F)c5nc(C)n(C(C)C)c5c4)n3)nc2)CC1` + C=CC(=O)N1CCN(c2nc(=O)n(-c3c(C)ccnc3C(C)C)c3nc(-c4c(O)cccc4F)c(F)cc23)C(C)C1, for which the viability, T/C was 39%.

Staying with this assay, now noted: second compound 3.16 µM; first compound 0.0316 µM; hits give low values.
Consider `CC(C)NCC(C(=O)N1CCN(c2ncnc3c2C(C)CC3O)CC1)c1ccc(Cl)cc1` (stereo not given) + C=CC(=O)N1CCN(c2nc(=O)n(-c3c(C)ccnc3C(C)C)c3nc(-c4c(O)cccc4F)c(F)cc23)C(C)C1, for which the viability, T/C is 39.5%.
Still for that read-out and setting: to `CC1COCCN1c1cc(-c2ccnn2C)c2ccnc(-c3ccn[nH]3)c2n1` (stereo not given) + C=CC(=O)N1CCN(c2nc(=O)n(-c3c(C)ccnc3C(C)C)c3nc(-c4c(O)cccc4F)c(F)cc23)C(C)C1 belongs 19.8%; to `CCN1CCN(Cc2ccc(Nc3ncc(F)c(-c4cc(F)c5nc(C)n(C(C)C)c5c4)n3)nc2)CC1` + C=CC(=O)N1CCN(c2nc(=O)n(-c3c(C)ccnc3C(C)C)c3nc(-c4c(O)cccc4F)c(F)cc23)C(C)C1, 33.8%; to `CCNC(=O)CC1N=C(c2ccc(Cl)cc2)c2cc(OC)ccc2-n2c(C)nnc21` (stereo not given) + C=CC(=O)N1CCN(c2nc(=O)n(-c3c(C)ccnc3C(C)C)c3nc(-c4c(O)cccc4F)c(F)cc23)C(C)C1, 55.4%.

The same assay, now with this note: second compound 3.16 µM; first compound 0.1 µM; hits give low values.
Turning to `CC(C)NCC(C(=O)N1CCN(c2ncnc3c2C(C)CC3O)CC1)c1ccc(Cl)cc1` (stereo not given) + C=CC(=O)N1CCN(c2nc(=O)n(-c3c(C)ccnc3C(C)C)c3nc(-c4c(O)cccc4F)c(F)cc23)C(C)C1, the viability, T/C is 27.3%.
As to `CC1COCCN1c1cc(-c2ccnn2C)c2ccnc(-c3ccn[nH]3)c2n1` (stereo not given) + C=CC(=O)N1CCN(c2nc(=O)n(-c3c(C)ccnc3C(C)C)c3nc(-c4c(O)cccc4F)c(F)cc23)C(C)C1, the viability, T/C is 11.8%.
With `CCN1CCN(Cc2ccc(Nc3ncc(F)c(-c4cc(F)c5nc(C)n(C(C)C)c5c4)n3)nc2)CC1` + C=CC(=O)N1CCN(c2nc(=O)n(-c3c(C)ccnc3C(C)C)c3nc(-c4c(O)cccc4F)c(F)cc23)C(C)C1, the viability, T/C is 32.7%.
`CCNC(=O)CC1N=C(c2ccc(Cl)cc2)c2cc(OC)ccc2-n2c(C)nnc21` (stereo not given) + C=CC(=O)N1CCN(c2nc(=O)n(-c3c(C)ccnc3C(C)C)c3nc(-c4c(O)cccc4F)c(F)cc23)C(C)C1: the viability, T/C was 48.9%.

Staying with this assay, now noted: second compound 3.16 µM; first compound 0.316 µM; hits give low values.
Consider `CC(C)NCC(C(=O)N1CCN(c2ncnc3c2C(C)CC3O)CC1)c1ccc(Cl)cc1` (stereo not given) + C=CC(=O)N1CCN(c2nc(=O)n(-c3c(C)ccnc3C(C)C)c3nc(-c4c(O)cccc4F)c(F)cc23)C(C)C1, for which the viability, T/C is 17.8%.
With `CC1COCCN1c1cc(-c2ccnn2C)c2ccnc(-c3ccn[nH]3)c2n1` (stereo not given) + C=CC(=O)N1CCN(c2nc(=O)n(-c3c(C)ccnc3C(C)C)c3nc(-c4c(O)cccc4F)c(F)cc23)C(C)C1, the viability, T/C is 8.81%.
